Assays:
[1] = test system: Human adenocarcinoma cell line LoVo; assay: Cell based screen for inhibitors of Raf kinase, quantitative assay; conditions: 96 h, four days incubation
Experimental: (§1) • Cell Lines: Human adenocarcinoma cell line LoVo which is known to be growth inhibited by low nM concentrations of a reference standard inhibitor of Ras and human adenocarcinoma cell line CaCo-2, which is known to be growth resistant to the same reference compound. • Cell Media : RPMI 1640 with 10% Fetal Bovine Serum supplemented with L-glutamine and Pennicilin/Streptomycin. • Compounds: Supplied usually as a 10 mM stock in 100% DMSO. • Normal Saline: 150 mM NaCl • Trichloroacetic Acid (TCA): 50% (w/v) in water • Sulforhodamine B (SRB): 0.4% (w/v) in 1% Acetic Acid • Tris Base: 10 mM in water
(§2) Cells are plated at 2000 cells per well for cell line LoVo and 1500 cells for cell line CaCo-2 in 96 well plates. Cells are plated in media (200 µl) and allowed to adhere overnight at 37°C. At 24 hours post plating, compounds are added directly at a volume of 0.5 µl. For the qualitative screen (compounds screened at 25 µM) compound is added directly to cells. For the quantitative screen, compound is first diluted in DMSO to generate concentrations of compound or reference standard of: 1, 5, 10 and 25 µM. It is advisable to make the dilutions in an identical 96 well plate so that compounds can be added using a multichannel micropipettor set at 0.5 µl. The cells are then incubated for four days after which the media is removed using a 12 well manifold by first tipping the plate forward at a 45 degree angle and then inserting the manifold in an upright orientation to prevent the tips of the manifold from disturbing cells at the bottom of the plate. 200 µl of normal saline is then added to each well using an 8 well multichannel pipettor, followed by the careful addition of 50 µl of 50% TCA. The plates are then incubated for 2 hours at 4°C, after which the supernatant is removed using the same technique as above and the plated washed twice with 200 µl water. The plates are then air dried and 50 µl of SRB stock solution is carefully added so that the entire bottom of each well is covered. This again can be used using an 8 well multichannel pipettor. The SRB is incubated with fixed cells for 15 minutes at room temperature after which the SRB is removed with the manifold as described above and the plates washed twice with 350 µl of 1% acetic acid per well each time. The plates are then air dried after which the bound SRB is released from protein by the addition of 200 µl of Tris base. Resolubilizing the SRB is aided by placing the plates on a rotator for 15-30 minutes. The absorbance of each well is determined at 550 or 562 nm using a microtiter plate reader.
(§3) Each compound or dilution thereof is performed in triplicate. Outliers are identified by visual inspection of the data. Each plate should have a "0" control (vehicle only).
(§4) Quantitative Assay: A standard curve is constructed by plotting the concentration of compound against the average absorbance calculated at that concentration. […] Multiple entries for a given compound indicate that it is tested multiple times.

[2] = test system: human adenocarcinoma cell line CaCo-2; assay: as above; conditions: Caco-2, 96 h, four days incubation
Experimental: as §1, §2, §3, §4

BxPC3 = assay: as above; conditions: Homo sapiens, BXPC-3
Raf-1 (c-Raf) = target: T1, Raf-1 (c-Raf) (Homo sapiens, UniProt P04049); assay: Raf1 kinase cascade assay procedure; type: biochemical
T1 construct: Sf9 insect cell lysate containing full length 6his-tagged recombinant human c-Raf; host or cells: c-Raf: Sf9 insect cell lysate; MEK1 and MAPK: E. coli
T1 sequence (P04049 whole entry): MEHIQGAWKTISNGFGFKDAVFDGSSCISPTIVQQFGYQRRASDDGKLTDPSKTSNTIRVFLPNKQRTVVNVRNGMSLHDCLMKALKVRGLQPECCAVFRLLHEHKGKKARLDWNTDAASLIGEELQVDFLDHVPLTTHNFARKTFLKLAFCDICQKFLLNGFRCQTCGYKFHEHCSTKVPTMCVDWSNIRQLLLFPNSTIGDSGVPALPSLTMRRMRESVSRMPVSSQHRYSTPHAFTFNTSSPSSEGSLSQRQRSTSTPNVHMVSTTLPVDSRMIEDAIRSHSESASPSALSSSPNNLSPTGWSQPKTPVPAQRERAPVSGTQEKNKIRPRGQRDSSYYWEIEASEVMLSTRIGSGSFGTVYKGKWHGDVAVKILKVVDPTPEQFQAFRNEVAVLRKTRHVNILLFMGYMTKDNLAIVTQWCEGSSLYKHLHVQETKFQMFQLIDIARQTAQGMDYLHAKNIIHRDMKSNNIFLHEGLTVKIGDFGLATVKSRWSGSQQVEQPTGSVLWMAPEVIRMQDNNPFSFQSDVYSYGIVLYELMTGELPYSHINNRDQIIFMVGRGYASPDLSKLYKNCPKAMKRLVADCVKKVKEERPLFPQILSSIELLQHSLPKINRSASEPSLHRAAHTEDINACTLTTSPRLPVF
Experimental: (Specific Activity: ~200U/ml). Human Non-active Mek-1-GST and human GST-MAP kinase (recombinant proteins produced in E. coli).
• 1. Assay Dilution Buffer (ADB): 20mM MOPS, pH 7.2, 25mM β-glycerol phosphate, 5mM EGTA, 1mM sodium orthovanadate, 1mM dithiothreitol. • 2. Magnesium/ATP Cocktail: 500µM cold ATP and 75 mM magnesium chloride in ADB. • 4. Active Kinase: Human Active c-Raf: Use at 0.4U per assay point • 5. Non-active GST-MEK1: Use at 0.1µg per assay point. • 6. Non-active GST-p42 MAP Kinase: Use at 1.0 µg per assay point
• 1. TBST - Tris (50 mM, pH 7.5), NaCl (150 mM), Tween-20 (0.05 %) • 2. Superblock (Pierce) • 3. Anti-GST Ab (Pharmacia) • 4. Anti-Phospho MAPK (Sigma) • 5. Anti-Mouse Ab / Europium conjugate (Wallac)
First Stage: c-Raf Dependent Activation of GST-MEK and GST-MAPK • 1. Add […] of ADB per assay (i.e. per well of a 96 well plate) • 2. Add 10 ml of 0.5 mM cold ATP and 75 mM magnesium chloride in ADB. • 3. Add 2 ml of c-Raf (0.4U/assay), in conjunction with 1.6ml non-active MEK1 ([…]). • 4. Add 4 ml of non-active GST-p42 MAP Kinase (1.0 mg/assay). • 5. Incubate for 60 minutes at 30°C in a shaking incubator. • 6. Transfer this mixture to an anti-GST Ab coated 96 well plate (Nunc Immunosorb plates coated o/n with a-GST, then blocked with Pierce Superblock). • 7. Incubate for 60 minutes at 30°C in a shaking incubator Wash 3X with TBST, add Anti-Phospho MAPK (Sigma) (1:3000) • 6. Incubate for 60 minutes at 30°C in a shaking incubator • 7. Wash 3X with TBST, add Anti-Mouse Ab / Europium conjugate (Wallac) (1:500) • 8. Incubate for 60 minutes at 30°C in a shaking incubator • 9. Wash 3X with TBST, Read plates in Wallac Victor model Plate Reader. • 10. Collect data analyze in Excel for single point and IC50 determinations.
Typically Raf-1 assay is run at compound concentrations from 10 µM to 1 nM in half log dilutions. (% inhibition is determined for each compound concentration).

[3] = target: T2, Kinase insert Domain containing Receptor (KDR; the catalytic domain of the VEGF receptor) (Homo sapiens, UniProt P35968); assay: Inhibition of Kinase insert Domain containing Receptor (KDR); type: biochemical; conditions: read-out: KDR %Inh (10 µM)
T2 construct: KDR; the catalytic domain of the VEGF receptor
T2 sequence (P35968 834-1162 limits assumed): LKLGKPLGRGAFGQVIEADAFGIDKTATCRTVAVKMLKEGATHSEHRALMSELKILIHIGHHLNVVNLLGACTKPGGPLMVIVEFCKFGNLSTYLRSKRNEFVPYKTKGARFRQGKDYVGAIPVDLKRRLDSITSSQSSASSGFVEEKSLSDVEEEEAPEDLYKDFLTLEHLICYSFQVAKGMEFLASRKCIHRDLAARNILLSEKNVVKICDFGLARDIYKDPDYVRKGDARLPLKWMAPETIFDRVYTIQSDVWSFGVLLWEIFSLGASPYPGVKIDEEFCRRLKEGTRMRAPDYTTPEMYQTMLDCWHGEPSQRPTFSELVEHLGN
Experimental: KDR protein is mixed, in the presence or absence of a inhibitor compound, with a substrate peptide to be phosphorylated (a copolymer of glutamic acid and tyrosine, E:Y :: 4:1) and other cofactors such as Mg^++ and sodium vanadate (a protein tyrosine phosphatase inhibitor) in an appropriate buffer to maintain pH (7.2). ATP and a radioactive tracer (either P^32- or P^33-labeled ATP) is then added to initiate phosphorylation. After incubation, the radioactive phosphate associated with the acid-insoluble fraction of the test procedure mixture is then quantified as reflection of substrate phosphorylation.

LnCAP = assay: Cell based screen for inhibitors of Raf kinase, quantitative assay; conditions: Homo sapiens
p60^c-src (Src) = target: T3, p60^c-src (Src) (Homo sapiens, UniProt P12931); assay: Src kinase test procedure (Elisa format); type: biochemical; conditions: dose 10 µM; read-out: Src %Inh
T3 construct: purchased Upstate Biotechnologies
T3 sequence (P12931 whole entry): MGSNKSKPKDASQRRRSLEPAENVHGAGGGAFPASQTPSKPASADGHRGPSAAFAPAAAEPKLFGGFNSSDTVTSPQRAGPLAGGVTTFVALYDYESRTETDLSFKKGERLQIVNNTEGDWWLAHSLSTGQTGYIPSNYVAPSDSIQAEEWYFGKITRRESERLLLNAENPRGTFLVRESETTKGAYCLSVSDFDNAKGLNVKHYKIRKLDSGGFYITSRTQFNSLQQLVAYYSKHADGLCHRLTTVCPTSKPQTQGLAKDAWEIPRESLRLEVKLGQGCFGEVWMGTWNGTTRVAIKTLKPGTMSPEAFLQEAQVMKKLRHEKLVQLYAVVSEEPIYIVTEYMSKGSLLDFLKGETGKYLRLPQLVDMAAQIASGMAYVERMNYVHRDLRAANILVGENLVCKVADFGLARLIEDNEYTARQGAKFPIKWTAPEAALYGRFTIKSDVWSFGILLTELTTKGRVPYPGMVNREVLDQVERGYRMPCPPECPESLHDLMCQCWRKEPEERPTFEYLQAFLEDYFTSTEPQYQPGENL
Experimental: Inhibitors of p60^c-src (partially purified preparation purchased from Upstate Biotechnologies) tyrosine kinase activity are analyzed in an Elisa format. […] HRP-conjugated anti-phosphotyrosine is used to detect phosphorylated peptide via a color reaction. Conditions recommended by the manufacturer are employed.
Reaction conditions: Five microliter aliquots of each compound prepared fresh at the time of the assay are added as a solution in 10mM HEPES pH 7.5, 10% DMSO to the reaction well. Thirty-five microliters of reaction mix containing Src, buffer and peptide/bovine serum albumin mix are added to the compound wells and incubated at 30°C for 10 minutes (reaction buffer: 50mM TrisHCl pH 7.5, 10mM MgCl2, 0.1mM EGTA, 0.5mM Na3VO4). The reaction is started by addition of 10 microliters of ATP, incubated at 30°C for 1 hour, and stopped by addition of 20 microliters of 0.5M EDTA. The reaction mixture with the phosphorylated peptide is then transferred to a streptavidin-coated microtiter plate (provided in the kit) and allowed to bind for 20 minutes. Unbound peptide and reaction mixture is decanted and the plate is washed with PBS six times. Horseradish peroxidase-conjugated phosphotyrosine antibody supplied in the kit is incubated with the plate for one hour, then decanted. The plate is again washed with PBS six times.

HT-29 cells = assay: Cell proliferation test procedure, HT-29 cells (MTS); type: cell-based; conditions: Homo sapiens, read-out: HT-29 prolif %Inh
Experimental: HT-29 cells: Compound effectiveness at inhibiting cell proliferation on plastic is performed in a 96-well format by plating 5000 cells per well in appropriate medium on day one, followed by compound addition on day 2 in serial two-fold dilutions. On day five, compound is washed away and medium containing MTS reagent (Promega) is added. Relative cell number is determined by reading the absorbance at 490nm of a dye produced by an NAD-dependent cellular enzymatic reaction.

[4] = test system: Rat2 fibroblasts stably transformed with v-Src/Hu c-Src fusion gene; assay: Anchorage independent Src-transformed fibroblast proliferation test procedure; type: cell-based; conditions: Rattus norvegicus, read-out: Src TF prolif %Inh
Excerpt: Anchorage Independent Src-transformed Fibroblast Proliferation Test Procedure: Rat2 fibroblasts stably transformed with a plasmid containing a CMV promotor controlled v-Src/Hu c-Src fusion gene in which the catalytic domain of human c-Src is inserted in place of the v-Src catalytic domain in the v-Src gene are used for the measurement of src dependent suspension growth.

[5] = target: Mitogen Activated Protein Kinase (Mek-Erk) (Homo sapiens, UniProt P28482+Q02750); assay: Mitogen Activated Protein Kinase (MAPK) two component coupled test procedure; type: biochemical
Sequence of Mitogen Activated Protein Kinase (Mek-Erk) (Q02750 whole entry): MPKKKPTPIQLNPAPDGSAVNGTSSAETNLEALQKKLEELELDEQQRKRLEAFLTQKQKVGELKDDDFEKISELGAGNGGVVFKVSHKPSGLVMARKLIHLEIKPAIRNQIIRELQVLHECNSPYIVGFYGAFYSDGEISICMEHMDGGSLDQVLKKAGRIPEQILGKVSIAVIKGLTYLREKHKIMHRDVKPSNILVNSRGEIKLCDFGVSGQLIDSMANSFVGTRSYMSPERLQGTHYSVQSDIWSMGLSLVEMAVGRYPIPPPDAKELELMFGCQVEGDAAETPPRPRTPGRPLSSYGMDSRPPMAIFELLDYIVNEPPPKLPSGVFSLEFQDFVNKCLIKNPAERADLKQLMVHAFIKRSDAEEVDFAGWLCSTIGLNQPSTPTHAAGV
Sequence of Mitogen Activated Protein Kinase (Mek-Erk) (P28482 2-360): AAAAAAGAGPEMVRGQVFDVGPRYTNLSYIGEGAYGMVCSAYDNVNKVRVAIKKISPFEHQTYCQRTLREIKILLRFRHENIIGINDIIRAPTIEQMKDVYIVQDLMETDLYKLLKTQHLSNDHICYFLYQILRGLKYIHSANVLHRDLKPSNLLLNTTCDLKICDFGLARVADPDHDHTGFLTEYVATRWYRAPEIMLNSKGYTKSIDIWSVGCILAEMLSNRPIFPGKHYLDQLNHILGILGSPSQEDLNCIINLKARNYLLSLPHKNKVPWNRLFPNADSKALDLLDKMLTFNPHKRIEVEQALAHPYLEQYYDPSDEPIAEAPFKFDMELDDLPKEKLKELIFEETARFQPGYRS
Experimental: To evaluate inhibitors of the MAP (mitogen activated protein) kinase a two component coupled standard pharmacological test procedure, which measures phosphorylation of a serine/threonine residue in an appropriate sequence in the substrate in the presence and absence of a putative inhibitor, is used. Recombinant human MEK 1 (MAPKK) is first used to activate recombinant human ERK2 (MAPK) and the activated MAPK (ERK) is incubated with substrate (myelin basic protein peptide (MBPP) or Myc peptide) in the presence of ATP, Mg^+2 and radiolabeled ^33P ATP. The phosphorylated peptide is captured on a P 81 phosphocellulose filter (paper filter or embedded in microtiter plate) washed and counted by scintillation methods.
The peptide substrates used in the assay are MBPP, peptide substrate ([sequence]), or synthetic Myc substrate, ([sequence]•5 TFA). The recombinant enzymes used are prepared as GST fusion proteins of human ERK 2 and human MEK 1. […]
The reaction is run as follows in 50 mM Tris kinase buffer, pH 7.4 in a reaction volume of 50 ul. […] The filters are briefly air dried before addition of scintillant and samples are counted in the appropriate scintillation counter set up for reading ^33P isotope.
The raw data is captured as cpm. […] Mean cpm data is tabulated by group and % inhibition by a test compound is calculated as (corrected cpm control-corrected. cpm sample/control) X 100 = % inhibition).

Structure (SMILES) | IC50 [1] [nM] | IC50 [2] [nM] | IC50 (BxPC3) [nM] | IC50 (Raf-1 (c-Raf)) [nM] | IC50 (LnCAP) [nM] | inhibition at 10 µM (HT-29 cells) [%] | also measured
COc1cc2cc3c(Nc4ccc(Sc5nccn5C)c(Cl)c4)c(C#N)cnc3cc2cc1OCCn1ccnn1 [Example 154, 4-[3-Chloro-4-(1-methyl-1H-imidazol-2-ylsulfanyl)phenylamino]-7-methoxy-8-(2-[1,2,3]triazol-1-yl-ethoxy)benzo[g]quinoline-3-carbonitrile] | 43 | > 1000 | 40 | 8 | – | – | –
Cc1ccc(Nc2c(C#N)cnc3c2sc2ccccc23)cc1O [Example 70, 4-(3-Hydroxy-4-methylphenylamino)benzo[4,5]thieno[3,2-b]pyridine-3-carbonitrile] | – | – | – | – | – | – | inhibition at 10 µM [3]: 22%
COc1cc2cc3c(Nc4ccc(Sc5nccn5C)c(Cl)c4)c(C#N)cnc3cc2cc1OCCCN1CCOCC1 [Example 151, 4-[3-Chloro-4-(1-methyl-1H-imidazol-2-ylsulfanyl)phenylamino]-7-methoxy-8-(3-morpholin-4-yl-propoxy)benzo[g]quinoline-3-carbonitrile] | 8.5 | 700 | 40 | 7 | 12 | – | –
Cc1ccc(Nc2c(C#N)cnc3c2oc2ccccc23)cc1O [Example 87, 4-(3-Hydroxy-4-methylphenylamino)benzo[4,5]furo[3,2-b]pyridine-3-carbonitrile] | – | – | – | – | – | – | inhibition at 10 µM [3]: 32%; inhibition at 10 µM (p60^c-src (Src)): 0%
COc1cc2cc3c(Nc4ccc(Sc5nccn5C)c(Cl)c4)c(C#N)cnc3cc2cc1OCCN1CCOCC1 [Example 149, 4-[3-Chloro-4-(1-methyl-1H-imidazol-2-ylsulfanyl)phenylamino]-7-methoxy-8-(2-morpholin-4-yl-ethoxy)benzo[g]quinoline-3-carbonitrile] | 6 | 900 | 37 | 4 | 53 | – | –
COc1ccc(Cl)c(Nc2c(C#N)cnc3c2C=C2N=CN=C2C3)c1 [Example 40, 8-(2-Chloro-5-methoxy-phenylamino)imidazo[4,5-g]quinoline-7-carbonitrile] | – | – | – | 700 | – | 10 | inhibition at 10 µM [4]: 0%
COc1cc(Nc2c(C#N)cnc3c2C=C2N=CN=C2C3)cc(OC)c1OC [Example 42, 8-(3,4,5-Trimethoxyanilino)imidazo[4,5-g]quinoline-7-carbonitrile] | – | – | – | – | – | 0 | inhibition at 0.22 µM ([4]; @ dose 0.22 µM): 50%
N#Cc1cnc2c(oc3ccccc32)c1Nc1ccc(Oc2ccccc2)cc1 [Example 88, 4-(4-Phenoxyphenylamino)benzo[4,5]furo[3,2-b]pyridine-3-carbonitrile] | – | – | – | – | – | – | IC50 [5]: > 100000 nM
COc1cc2cc3c(Nc4ccc(Sc5nccn5C)c(Cl)c4)c(C#N)cnc3cc2cc1OCCn1nccn1 [Example 153, 4-[3-chloro-4-(1-methyl-1H-imidazol-2-ylsulfanyl)phenylamino]-7-methoxy-8-(2-[1,2,3]triazol-2-yl-ethoxy)benzo[g]quinoline-3-carbonitrile] | 9.4 | > 1000 | 38 | 12 | 19 | – | –
COc1cc2cc3c(Nc4ccc(Sc5nccn5C)c(Cl)c4)c(C#N)cnc3cc2cc1OCCN1CCN(C)CC1 [Example 152] | 29 | > 1000 | 40 | 8 | 32 | – | –
N#Cc1cnc2c(c1Nc1ccc(Cl)cc1Br)C=C1N=CN=C1C2 [Example 38, 8-(2-Bromo-4-chlorophenylamino)imidazo[4,5-g]quinoline-7-carbonitrile] | – | – | – | – | – | 25 | inhibition at 10 µM [4]: 0%
COc1cc(Nc2c(C#N)cnc3c2C=C2N=CN=C2C3)c(Br)cc1Cl [Example 39, 8-(2-Bromo-4-chloro-5-methoxyphenylamino)imidazo[4,5-g]quinoline-7-carbonitrile] | – | – | – | 900 | – | 35 | inhibition at 10 µM [4]: 25%

From patent EP1242382B1, “TRICYCLIC PROTEIN KINASE INHIBITORS” (Wyeth, priority 1999, dated 2001)
